According to US20240226357A1, “Sanitization Method for Affinity Chromatography Matrices” (priority 2015, published 2024):
Read-outs that look alike come from different tables or passages of the source.

What was measured:
[1] = test system: Bacillus subtilis (spores); assay: Disinfectant challenge test in Capto L 50% slurry, viable count of spores; assay type: cell-based; details: for Log10 reduction of Bacillus subtilis spores: mean of duplicates
Experimental: (§1) The purpose of this investigation was to evaluate the bactericidal and sporicidal effect on • bacterial spores and bacteria of eight disinfectants as well as PBS as reference added to • Capto L 50% slurry. The effect was tested with contact times of 0 and 15 minutes as well as • 1, 4, and 24 hours.
(§2) The test was performed in slurries of Capto L 50% and disinfectants. Microorganisms were • added at a concentration of approximately 10^7 cfu/mL to the suspension and the reducing effect was evaluated after given time intervals by neutralizing the disinfectant. […] The results were evaluated with regard to log10 reductions of the microorganisms Bacillus subtilis (spores) and Pseudomonas aeruginosa (vegetative bacteria).
(§3) 10^7 cfu/mL of the microorganism was added to 10 mL of Capto L 50% slurry with disinfectant. Samples were mixed and duplicate samples of 0.1 mL were added to 50 mL of neutralizing agent (0.075 M phosphate buffer with 0.3% lecithin, 3.0% Tween 80, 0.5% sodium thiosulfate and 0.1% L-histidine). The total solution was analyzed by filtrating fractions corresponding to 10-times serial dilutions. Filters were rinsed three times with 100 mL of 0.9% NaCl. As positive control each microorganism was added to 50 mL of neutralizing agent, the same amount added as for the disinfectant challenge tests. The total solution was analyzed by filtrating fractions corresponding to 10-times serial dilutions. Filters were rinsed three times with 100 mL of 0.9% NaCl. Filters were incubated on TSA (Trypticase Soy Agar) at 30-35° C. for 2-5 days. Preliminary reading was performed after 1-3 days. The reduction of microorganisms was calculated as the log10 of the surviving microorganisms as compared to that of the positive control.

[2] = test system: Pseudomonas aeruginosa (vegetative bacteria); assay: Disinfectant challenge test in Capto L 50% slurry, viable count of vegetative bacteria; assay type: cell-based; details: mean of duplicates
Experimental: as §1, §2, §3

Fab = details: Capto L, compared to PBS control
Experimental: A PreDictor™ (GE Healthcare) 96-well filter plate with 6 microliters Capto L in each well was subjected to the following procedure: • Removal of PreDictor storage solution (20% Ethanol) • Wash: 3×200 μl 20 mM phosphate, 150 mM NaCl pH 7.4 • Wash 3×200 μl MilliQ • Addition of 600 μl SIP solutions and 20 mM phosphate, 150 mM NaCl pH 7.4 (control) (48 solutions and duplicates in plate) • Sealing of bottom and top of the plates with Parafilm • Incubation in SIP solutions for 4 or 24 hours with shaking at 450 rpm • Liquids were removed by centrifugation (500×g, 1 min).
The static binding capacity (SBC) of a Fab was determined by: • 1. Removal of SIP solutions • 2. Wash: 1x600 μl MilliQ, 1x600 μl PBS • 3. Equilibration: 3x200 μl 20 mM phosphate, 150 mM NaCl pH 7.4 • 4. Sample loading: 200 μl Fab at a concentration of 2.5 mg/mL, incubation 10 min and 90 min at 1100 rpm • 5. Collection of unbound sample in UV-readable plates and measurement of UV absorbance at 280 (and 254 nm)
Liquids were removed by centrifugation (500×g, 1 min).
The UV absorbance of the PBS buffer at 280 nm (path check on) was subtracted from the UV absorbance of the flow through fraction (A280-blank280)
The concentration in the flow through fraction was calculated using a standard curve (A280-blank280)/1.2796
[formula] • Vsample=200μl • Vmedium=6 μl • Vr=6+0.6*Vmedium=9.6 • Vr: The retained volume i.e. filter volume (6 μl) and liquid volume in resin (0.6*6)

[3] = test system: monoclonal antibody immobilized on a Biacore chip; assay: Biacore (SPR) binding kinetics of ligands before and after incubation in 0.1 M peracetic acid; details: ligand incubated for 0 to 24 h in 0.1 M PAA
Experimental: The kinetics was measured by Surface Plasmon Resonance on a Biacore™ instrument. […] Reference sample (0 h) was withdrawn, 100 μl and buffer exchanged to 50 mM Ammonium Bicarbonate. • 4. 10% 1 M PAA was added and the incubations started. • 5. Samples were withdrawn after 1, 2, 4, 8, 16 and 24 h, 100 μl and buffer exchanged to 50 mM Ammonium Bicarbonate to stop the oxidation reaction. • 6. The concentrations were measured in all samples by measuring the UV absorbance at 276 nm. • 7. The samples were then analyzed on LC-MS and Biacore.

[4] = 4 h incubation in SIP solution, 90' incubation with Fab sample
[5] = 24 h incubation in SIP solution, 10' incubation with Fab sample

Compound | Log10 reduction of Bacillus subtilis spores ([1]; contact time 0 min) | Log10 reduction of Bacillus subtilis spores ([1]; contact time 15 min) | Log10 reduction of Bacillus subtilis spores ([1]; contact time 1 hour) | Log10 reduction of Bacillus subtilis spores ([1]; contact time 4 hours) | Log10 reduction of Bacillus subtilis spores ([1]; contact time 24 hours) | Log10 reduction of Pseudomonas aeruginosa ([2]; contact time 0 min) | Log10 reduction of Pseudomonas aeruginosa ([2]; contact time 15 min) | Log10 reduction of Pseudomonas aeruginosa ([2]; contact time 1 hour) | Log10 reduction of Pseudomonas aeruginosa ([2]; contact time 4 hours) | Log10 reduction of Pseudomonas aeruginosa ([2]; contact time 24 hours) | Relative remaining SBC (%) (Fab; [4]) | Relative remaining SBC (%) (Fab; [5]) | other results
CC(=O)OO [0.1M Peracetic acid, peracetic acid] | 5.6 log10 | >6.9 log10 | >6.9 log10 | >6.9 log10 | >6.9 log10 | >6.9 log10 | >6.9 log10 | >6.9 log10 | >6.9 log10 | >6.9 log10 | – | – | Killing of B. subtilis spores (in words) ([1]; among the tested disinfectants): capable of efficiently killing B. subtilis spores; Relative remaining SBC (%) (Fab; 4 h incubation in SIP solution, 10' incubation with Fab sample, listed as 100 mM Peracetic acid): 109%; Relative remaining SBC (%) (Fab; 4 h incubation in SIP solution, 90' incubation with Fab sample, listed as 100 mM Peracetic acid): 101%; Relative remaining SBC (%) (Fab; 24 h incubation in SIP solution, 10' incubation with Fab sample, listed as 100 mM Peracetic acid): 107%
N=C(NCCCCCCNC(=N)NC(=N)Nc1ccc(Cl)cc1)NC(=N)Nc1ccc(Cl)cc1.O=C(O)[C@H](O)[C@@H](O)[C@H](O)[C@H](O)CO.O=C(O)[C@H](O)[C@@H](O)[C@H](O)[C@H](O)CO [2% Chlorhexidine digluconale, Chlorhexidine digluconale] | 1.3 log10 | 1.2 log10 | 0.7 log10 | 1.6 log10 | 0.2 log10 | >6.9 log10 | >6.9 log10 | >6.9 log10 | >6.9 log10 | >6.9 log10 | – | – | –
OO [5% H2O2, hydrogen peroxide] | – | – | – | – | – | – | – | – | – | – | 102% | 102% | –
CC(=O)OO [500 mM Peracetic acid, Peracetic acid] | – | – | – | – | – | – | – | – | – | – | 103% | 97% | Relative remaining SBC (%) (Fab; 24 h incubation in SIP solution, 90' incubation with Fab sample): 102%
rPrA: recombinant Protein A | – | – | – | – | – | – | – | – | – | – | – | – | Affinity before and after SIP [3]: some loss in affinity with increasing SIP treatment
